In one assay the test system is A549. Put plainly: Cytotoxicity against human A549 cells. Type of assay: functional, cell-based.
The next assay deals with P388. Put plainly: Cytotoxicity against mouse P388 cells. Type of assay: functional, cell-based.
The subject of another assay is MCF7. Kind of assay: Cytotoxicity against human MCF7 cells. Type of assay: functional, cell-based.
Assay [1] is described as follows: Cytotoxicity against human NCI/ADR cells. Type of assay: functional, cell-based. Conditions: NCI/ADR-RES.
The next assay has as its system PANC-1. Put plainly: Cytotoxicity against human PANC1 cells. Type of assay: functional, cell-based.
Another assay relates to Vero. Put plainly: Cytotoxicity against african green monkey Vero cells. Type of assay: cell-based. Conditions: Chlorocebus sabaeus.

SMILES strings stand for the structures.

These results are taken from ChEMBL document CHEMBL1151194, “Synthetic analogues of the microtubule-stabilizing agent (+)-discodermolide: preparation and biological activity” (J Nat Prod, 2004).

For orientation: IC50 means the point on the concentration scale where inhibition reaches its midpoint. With `C=C/C=C\[C@H](C)[C@H](OC(N)=O)[C@@H](C)[C@H](O)[C@@H](C)CC(=C)[C@H]1[C@H](C)[C@@H](O)[C@@H](C)[C@@H]1/C=C/C[C@@H]1OC(=O)[C@H](C)[C@@H](O)[C@H]1C`, the IC50 with A549 was determined as 100 nM; with P388 it was 190 nM; with MCF7, 130 nM; in assay [1] it was 3400 nM; in the assay with PANC-1 it was 330 nM; in the assay with Vero it was 690 nM.

Turning to `C=C/C=C\[C@H](C)[C@H](OC(N)=O)[C@@H](C)[C@H](O)[C@@H](C)/C=C(\C)[C@H]1[C@H](C)[C@@H](O)[C@@H](C)[C@@H]1/C=C/C[C@@H]1OC(=O)[C@H](C)[C@@H](O)[C@H]1C`, the IC50 in the assay on A549 was 6640 nM; in the assay on P388, 2130 nM; with MCF7, 2100 nM; in assay [1], > 5000 nM; with PANC-1 it was 6570 nM; in the assay with Vero, 21900 nM.

As for `C=C/C=C\[C@H](C)[C@H](OC(N)=O)[C@@H](C)[C@H](O)[C@@H](C)C/C(C)=C\[C@H](C)[C@H]1O[C@H](C[C@@H]2OC(=O)[C@H](C)[C@@H](O)[C@H]2C)C=C[C@@H]1C`, the concentration for half-maximal inhibition (IC50) in the assay on A549 amounted to 1460 nM; in the assay with P388, 1000 nM; in the assay with MCF7, 1800 nM; in assay [1], 4400 nM; with PANC-1 it was 3130 nM; with Vero it was 3650 nM.

Take `C=C/C=C\[C@H](C)[C@H](OC(N)=O)[C@@H](C)[C@H](O)[C@@H](C)C/C(C)=C\[C@H](C)[C@@H](O)[C@@H](C)/C=C\[C@@H](O)C[C@@H]1OC(=O)[C@H](C)[C@@H](O[Si](C)(C)C(C)(C)C)[C@H]1C`: the IC50 in the assay on A549 is 1990 nM; with P388, 790 nM; in the assay on MCF7, 960 nM; in assay [1], 2800 nM; in the assay with PANC-1, 2650 nM; in the assay on Vero it was 420 nM.

`C=C/C=C\[C@H](C)[C@H](OC(N)=O)[C@@H](C)[C@H](O)[C@@H](C)C[C@@](C)(O)[C@H]1[C@H](C)[C@@H](O)[C@@H](C)[C@@H]1/C=C/C[C@@H]1OC(=O)[C@H](C)[C@@H](O)[C@H]1C` (mixture of isomers): the IC50 is 840 nM in the assay with A549; 2420 nM in the assay on P388; 2360 nM in the assay on MCF7; > 5000 nM in assay [1]; 3030 nM in the assay with PANC-1; 4300 nM in the assay on Vero.

`C=C/C=C\[C@H](C)[C@H](OC(N)=O)[C@@H](C)[C@H](O)[C@@H](C)C[C@](C)(O)[C@H]1[C@H](C)[C@@H](O)[C@@H](C)[C@@H]1/C=C/C[C@@H]1OC(=O)[C@H](C)[C@@H](O)[C@H]1C` (relative stereo): the IC50 in the assay on A549 was 2640 nM; in the assay on P388 it was 2090 nM; in the assay with MCF7 it was 1730 nM; in assay [1], > 5000 nM; with PANC-1 it was > 5000 nM; in the assay on Vero it was 16600 nM.

Take `C=C/C=C\[C@H](C)[C@H](OC(N)=O)[C@@H](C)[C@H](O)[C@H](C)C[C@](C)(O)[C@H]1[C@H](C)[C@@H](O)[C@@H](C)[C@@H]1/C=C/C[C@@H]1OC(=O)[C@H](C)[C@@H](O)[C@H]1C` (relative stereo): the IC50 is > 5000 nM in the assay with A549; 7650 nM in the assay on P388; 7350 nM in the assay on MCF7; > 5000 nM in assay [1]; > 5000 nM in the assay on PANC-1; 11400 nM in the assay with Vero.

Take `C=C/C=C\[C@H](C)[C@H](OC(N)=O)[C@@H](C)[C@H](O)[C@@H](C)C/C(C)=C\[C@H](C)[C@@H](O)[C@@H](C)/C=C\[C@@H](O)C[C@@H]1OC(=O)[C@H](C)[C@@H](O)[C@H]1C` [DISERMOLIDE]: the IC50 with A549 turned out to be 15 nM; in the assay with P388 it was 33 nM; in the assay on MCF7, 2.4 nM; in assay [1] it was 17 nM; in the assay with PANC-1, 49 nM; with Vero, 30000 nM.
